Results on 1 compound are retold here after article PMC8843100, “Development of newly synthesised quinazolinone-based CDK2 inhibitors with potent efficacy against melanoma” (Journal of Enzyme Inhibition and Medicinal Chemistry, 2022).

For experiment [1], the system named is glioblastoma cell line SNB-75. The experiment is described as follows: Detection of IC50, MTT assay. In kind it is cell-based. The following applies: Homo sapiens, read-out: IC50 (µM)±SD, 50% inhibition of cell viability, Glioblastoma SNB-75, 48 h. As for the experimental part:
2. Detection of IC50 against MDA-MB-435, SNB-75 cell lines and normal cell line WI -38.
Antiproliferative activities of 5c in melanoma cell line MDA-MB-435, glioblastoma cell line SNB-75 and normal cell line WI -38 and that of 8a in melanoma cell line MDA-MB-435 and normal cell line WI-38 were measured spectrophotometrically using in vitro MTT based toxicology assay kit (catalog no. M -5655, M-8910) (Sigma Aldrich), according to the manufacturer’s protocol. The three examined cell lin es were obtained from American Type Culture Collection (ATCC). Briefly, cells were platted (cells density 1.2 – 1.8 × 10,000 cells/well) in a volume of 100 µl complete growth medium + 100 μl of the tested compound per well in a 96-well […]
salt solution without phenol red and serum.

Experiment [2] deals with melanoma MDA-MB-435 cells. The experiment is described as follows: Cell cycle analysis, PI flow cytometry. The conditions noted are these: MDA-MB-435, after 24 h at IC50 concentration. The format is cell-based, human. How it is done:
10% of the culture medium volume. Cultures were returned to incubator for 2–4 h. After the incubation period, cultures were removed from incubator and the resulting formazan crystals were dissolved by adding an amount of MTT solubilization solution [M-8910] equal to the original culture medium volume. Dissolution is enhanced by gentle mixing in a gyratory shaker. Then the absorbance is measured spectrophotometrically at a wavelength of 450 nm. The absorbance of multiwell plates was measured at 690 nm and subtracted from the 450 nm measurement. IC50 values (concentration of sample causing 50% loss of cell proliferation of the vehicle control) were calculated using non-linear regression curve fitting of the dose response plots on GraphPad Prism 7.0 software. Data presented are the results of at least three independent experiments. The results of these studies are presented as mean IC50 (μM) ± standard deviation (SD).
Melanoma MDA -MB-435 and glioblastoma SNB-75 cells were treated with the quinazolinone 5c for 24 h (at its IC50 concentration), and then cells were washed twice with ice - cold phosphate buffered saline (PBS). Consequently, the treated cells were collected by centrifugation, fixed in ice -cold 70% (v/v) ethanol, washed with PBS, re -suspended with 100 μg/mL RNase, stained with 40 μg/mL propidium iodide (PI), and analyzed by flow cytometry using FACS Calibur (Becton Dickinson, BD, Franklin Lakes, NJ, USA). The cell cycle distributions were calculated using Cell Quest software 5.1 (Becton Dickinson). […]
For orientation: In flow cytometry, cells or beads pass a laser one at a time.

Experiment [3] relates to glioblastoma SNB-75 cells. The experiment in a line: Apoptosis determination, Annexin V-FITC/PI. The format is cell-based, human. The following applies: SNB-75, 24 h at IC50 concentration. As for the experimental part: (§1) The apoptotic activity of quinazolinone 5c in melanoma MDA-MB-435 and glioblastoma SNB-75 cell lines was further studied using Annexin V-FITC assay. […]
(§2) 4. Apoptosis determination
(§3) Annexin V fluorescein isothiocyanate (FITC)/PI apoptosis detection kit (BD Biosciences) was used according to the manufacturer’s instructions to measure the apoptotic activity of compound 5c. Melanoma MDA -MB-435 and glioblastoma SNB -75 cells were cultured to a monolayer then treated with the quinazolinone 5c at its IC50 concentration. The cells then were collected by trypsinisation and 0.5×10^6 cells were washed twice with PBS and stained with 5 µL Annexin V-FITC and 5 µL PI in 1Xbinding buffe r for 15 min. at room temperature in the dark.
(§4) Analyses were performed using FACS Calibur flow cytometer (BD Biosciences, San Jose, CA).

In experiment [4] the test system is melanoma MDA-MB-435 cells. The experiment in a line: Apoptosis determination, Annexin V-FITC/PI. The conditions noted are these: MDA-MB-435, 24 h at IC50 concentration. In kind it is cell-based, human. As for the experimental part: as §1, §2, §3, §4

For `O=c1c2ccccc2nc(COc2ccccc2)n1NS(=O)(=O)c1ccc(Cl)cc1` [Compound 5c, 4-chloro-N-(4-oxo-2-(phenoxymethyl)quinazolin-3(4H)-yl)benzenesulfonamide], the IC50 – broadly, the concentration at which inhibition is half-maximal – in experiment [1] came to 8.62 ± 0.13 µM. In experiment [2], the “%G0-G1” value was found to be 55.29%, the “%G2/M” value stood at 3.74%, the “%Pre-G1” value worked out at 28.65% and the “%S” value amounted to 40.97%. The “Comment (cell cycle)” value in experiment [2] was “Pre G1 apoptosis and cell growth arrest at S”. In addition, in experiment [3], the “% Necrosis” value is recorded as 8.61%, the “%Apoptosis Early” value is 2.65%, the “%Apoptosis Late” value is reported as 32.96% and the “%Apoptosis Total” value was found to be 44.22%. For the same compound, in experiment [4], the “% Necrosis” value worked out at 13.47%, the “%Apoptosis Early” value is given as 4.53%, the “%Apoptosis Late” value stood at 10.65% and the “%Apoptosis Total” value is on record as 28.65%.
